Holding throughout (format): functional
For one experiment, the system named is SNB-75. As to the kind of experiment: Cytotoxicity against human SNB75 cells after 48 hrs by SRB assay. Particulars: SNB-75, 48 h.
For another experiment, the system named is NCI-H522. The experiment can be described thus: Cytotoxicity against human NCI-H522 cells after 48 hrs by SRB assay. Particulars: NCI-H522, 48 h.
The next experiment has as its system MKN-74. The experiment can be described thus: Cytotoxicity against human MKN74 cells after 48 hrs by SRB assay. Particulars: MKN-74, 48 h.
The subject of a further experiment is LOX IMVI. As to the kind of experiment: Cytotoxicity against human LOXIMVI cells after 48 hrs by SRB assay.
The subject of the next experiment is SF-539. The experiment can be described thus: Cytotoxicity against human SF539 cells after 48 hrs by SRB assay. Particulars: SF-539, 48 h.

≈ marks a conversion by molar mass, not a printed value.

`C/C1=C\CC2=CC[C@@H](C(C)C)[C@]2(C)C[C@@H](O)/C(C)=C/CC1`: the GI50 with SNB-75 was 4.9 µg/mL (≈ 17 µM); with NCI-H522 it was 5.2 µg/mL (≈ 18 µM); in the experiment with MKN-74, 5.2 µg/mL (≈ 18 µM); in the experiment with LOX IMVI, 4.9 µg/mL (≈ 17 µM); with SF-539, 4.9 µg/mL (≈ 17 µM).

Values taken from ChEMBL document CHEMBL1151167, “New marine sesquiterpenoids and diterpenoids from the Okinawan soft coral Clavularia koellikeri” (2004).
